# From patent US20220243210A1, “ANGIOTENSIN II TYPE 1 RECEPTOR TARGETED OLIGONUCLEOTIDES AND USES THEREOF” (Ionis Pharmaceuticals, Inc., priority 2019, published 2022)
# Target: T1, human AGTR1 (Homo sapiens, UniProt P30556)
# T1 construct: host or cells: HEK293 (HEK-AGTR1 FAP cells)
# T1 sequence (P30556 1-359): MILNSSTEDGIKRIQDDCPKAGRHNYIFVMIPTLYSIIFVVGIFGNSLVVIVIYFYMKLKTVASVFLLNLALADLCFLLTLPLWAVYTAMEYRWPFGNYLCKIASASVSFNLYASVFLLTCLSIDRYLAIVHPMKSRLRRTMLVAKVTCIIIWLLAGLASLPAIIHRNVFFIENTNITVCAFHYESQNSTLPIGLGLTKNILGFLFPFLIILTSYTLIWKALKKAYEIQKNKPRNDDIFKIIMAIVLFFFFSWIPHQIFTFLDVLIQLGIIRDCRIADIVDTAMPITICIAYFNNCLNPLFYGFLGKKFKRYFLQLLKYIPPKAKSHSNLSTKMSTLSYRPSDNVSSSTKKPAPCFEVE
# Experiment: AGTR1 signaling, IP-One Gq kit (IP1 accumulation), HEK-AGTR1 FAP cells
# Type: cell-based
# Conditions: 90 minutes
# Method: Activated AGTR1 couples to the Gαq subunit of heterotrimeric G proteins, which activates the phospholipase C (PLC) and subsequently inositol 1,4,5-trisphosphate (IP3) signaling cascade. AGTR1 signaling was measured using an IP-One Gq kit (cisbio #62IPAPEB). The kit detects the accumulation of inositol monophosphate (IP1), a stable downstream metabolite of IP3 induced by activation of a phospholipase C (PLC) cascade.
# An additional control compound, AngII, which consists of the peptide motif […], was also tested. […] AGTR1 activation was measured using the IP-One Gq kit.
substance,measurement,setting,value
AngII,IP1 accumulation,0.0256 nM,1.183 µM
same,IP1 accumulation,0.128 nM,2.569 µM
same,IP1 accumulation,0.64 nM,1.71 µM
same,IP1 accumulation,3.2 nM,4.465 µM
same,IP1 accumulation,16 nM,8.913 µM
same,IP1 accumulation,80 nM,15.383 µM
same,IP1 accumulation,400 nM,13.89 µM
same,IP1 accumulation,2000 nM,14.825 µM
